Results on one compound are retold here after PMC3152581 (Journal of natural products, 2010).

The assay addresses BACE1 (memapsin-2) (Homo sapiens, UniProt P56817). Put plainly: BACE1 assay. It is filed as biochemical. As to conditions: biological screening; result in words.

BACE1 (memapsin-2), sequence (P56817 46-501): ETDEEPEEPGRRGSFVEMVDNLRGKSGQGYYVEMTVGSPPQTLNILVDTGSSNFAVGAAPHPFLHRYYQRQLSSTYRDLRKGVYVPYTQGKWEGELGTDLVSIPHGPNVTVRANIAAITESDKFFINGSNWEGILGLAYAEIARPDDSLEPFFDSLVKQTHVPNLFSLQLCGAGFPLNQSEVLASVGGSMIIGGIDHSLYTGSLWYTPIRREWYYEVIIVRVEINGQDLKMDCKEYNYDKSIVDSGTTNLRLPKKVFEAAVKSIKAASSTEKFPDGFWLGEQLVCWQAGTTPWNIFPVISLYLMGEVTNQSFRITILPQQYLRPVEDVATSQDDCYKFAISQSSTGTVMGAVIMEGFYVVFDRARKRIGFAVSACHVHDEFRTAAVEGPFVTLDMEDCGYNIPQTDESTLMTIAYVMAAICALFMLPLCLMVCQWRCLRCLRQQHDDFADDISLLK

As for `C[C@@]12CC[C@H](O)[C@@H]3COC(=C31)C(=O)c1cc3c(OCCO)cccc3cc12` [Compound 1, Xestosaprol F], the “Inhibition of BACE1 (in words)” value is on record as “significantly less active”.
